Assay results as given in PubChem BioAssay AID248 (DTP/NCI, 2004).
Values joined by “and” are separate entries in the source; they are usually repeats but may differ in a detail not shown here. Equal values may be shown once. Toxic doses and inconclusive results are not listed. No stated cut-off is given here; in the data, active means T/C of 150% or more; inactive means T/C below 125%.

System: L1210 leukemia ip in BDF1 mice, survival T/C
Experiment: NCI In Vivo Anticancer Drug Screen. Data for tumor model L1210 Leukemia (intraperitoneal) in B6D2F1 (BDF1) mice
Conditions: endpoint: mean survival time, higher = longer survival
How it was run: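 Transplanted-tumor mice were given test agent; controls received vehicle only. Survival readings from the two groups were divided (treated over control).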

[1] = dose: 100.0 mg/kg/injection, schedule: Q04DX002 (ip), vehicle: saline with Tween-80
[2] = dose: 200.0 mg/kg/injection, schedule: Q04DX002 (ip), vehicle: saline with Tween-80
[3] = dose: 400.0 mg/kg/injection, schedule: Q04DX002 (ip), vehicle: saline with Tween-80
[4] = dose: 100.0 mg/kg/injection, schedule: Q04DX002 (ip), vehicle: Klucel (hydroxypropylcellulose) (HPC)
[5] = dose: 200.0 mg/kg/injection, schedule: Q04DX002 (ip), vehicle: Klucel (hydroxypropylcellulose) (HPC)
[6] = dose: 100.0 mg/kg/injection, schedule: Q01DX009 (ip), vehicle: Klucel (hydroxypropylcellulose) (HPC)

Measured: T/C

CCC1(c2ccccc2)C(=O)NC(=O)N(Cc2ccccc2)C1=O (stereo not given)
inactive: dose: 100.0 mg/kg/injection, schedule: Q01DX009 (ip), vehicle: saline with Tween-80 109 % of control | [1] 89 % of control | dose: 200.0 mg/kg/injection, schedule: Q01DX009 (ip), vehicle: saline with Tween-80 98 % of control | [2] 95 % of control | dose: 400.0 mg/kg/injection, schedule: Q01DX009 (ip), vehicle: saline with Tween-80 98 % of control | [3] 103 % of control

Cc1cnc(/N=C(\N)N2CCOCC2)nc1-c1ccccc1O
inactive: [4] 88 % of control | [5] 88 % of control

Cc1c(NC(=O)Nc2ccccc2F)c(=O)n(-c2ccccc2)n1C
inactive: dose: 100.0 mg/kg/injection, schedule: Q01DX001 (ip), vehicle: saline 101 % of control | dose: 100.0 mg/kg/injection, schedule: Q01DX009 (ip), vehicle: acetone 86 % of control | dose: 100.0 mg/kg/injection, schedule: Q04DX003 (ip), vehicle: saline 112 % of control | dose: 200.0 mg/kg/injection, schedule: Q01DX001 (ip), vehicle: saline 95 % of control and 91 % of control | dose: 200.0 mg/kg/injection, schedule: Q04DX003 (ip), vehicle: saline 91 % of control | dose: 400.0 mg/kg/injection, schedule: Q01DX001 (ip), vehicle: saline 97 % of control and 98 % of control | dose: 400.0 mg/kg/injection, schedule: Q04DX003 (ip), vehicle: saline 95 % of control

NC(=O)c1ccccc1OC(=O)Nc1ccccc1
inactive: dose: 50.0 mg/kg/injection, schedule: Q01DX009 (ip), vehicle: Klucel (hydroxypropylcellulose) (HPC) 103 % of control | [6] 101 % of control | [4] 89 % of control | [5] 99 % of control

CC(Cc1ccccc1)n1c(-c2ccccc2)c[n+]2ccccc12 (stereo not given)
inactive: dose: 1.17 mg/kg/injection, schedule: Q01DX001 (ip), vehicle: other 101 % of control | dose: 2.34 mg/kg/injection, schedule: Q01DX001 (ip), vehicle: other 102 % of control | dose: 4.69 mg/kg/injection, schedule: Q01DX001 (ip), vehicle: other 102 % of control

CC(=O)OC1CCC2(C)C(=CCC3C2CCC2(C)C3CC(SCC(=O)O)C2SCC(=O)O)C1 (stereo not given)
inactive: dose: 100.0 mg/kg/injection, schedule: Q04DX003 (sc), vehicle: steriod suspending solution 98 % of control | dose: 200.0 mg/kg/injection, schedule: Q04DX003 (sc), vehicle: steriod suspending solution 106 % of control | dose: 400.0 mg/kg/injection, schedule: Q04DX003 (sc), vehicle: steriod suspending solution 106 % of control

C#CCN(CC#C)c1ccccc1
inactive: [1] 100 % of control | [2] 93 % of control | [3] 97 % of control

CCOc1ccc(CO)cc1
inactive: dose: 100.0 mg/kg/injection, schedule: Q04DX003 (ip), vehicle: saline with Tween-80 97 % of control | dose: 200.0 mg/kg/injection, schedule: Q04DX003 (ip), vehicle: saline with Tween-80 100 % of control | dose: 400.0 mg/kg/injection, schedule: Q04DX003 (ip), vehicle: saline with Tween-80 89 % of control

c1cc[c]([Pb]([c]2ccccc2)([c]2ccccc2)[n]2cnc3cncnc32)cc1
inactive: dose: 5.0 mg/kg/injection, schedule: Q01DX001 (ip), vehicle: other 103 % of control | dose: 10.0 mg/kg/injection, schedule: Q01DX001 (ip), vehicle: other 95 % of control

C=CC12CN(C)C3C4COC(CC41)C1(C(=O)Nc4ccccc41)C32 (stereo not given)
inactive: dose: 75.0 mg/kg/injection, schedule: Q01DX001 (ip), vehicle: other 102 % of control

Cc1noc(NC(=O)Nc2ccccc2C(F)(F)F)c1C
inactive: [6] 95 % of control and 103 % of control | [4] 92 % of control and 97 % of control | dose: 200.0 mg/kg/injection, schedule: Q01DX009 (ip), vehicle: Klucel (hydroxypropylcellulose) (HPC) 92 % of control and 118 % of control | [5] 101 % of control and 119 % of control | dose: 400.0 mg/kg/injection, schedule: Q01DX009 (ip), vehicle: Klucel (hydroxypropylcellulose) (HPC) 101 % of control | dose: 400.0 mg/kg/injection, schedule: Q04DX002 (ip), vehicle: Klucel (hydroxypropylcellulose) (HPC) 105 % of control and 116 % of control
